{
  "source": "patent US9359376B2",
  "about": "“Substituted methylformyl reagents and method of using same to modify physicochemical and/or pharmacokinetic properties of compounds” (priority 2011, dated 2016)",
  "assay": "in vivo",
  "description": "[…] Blood was collected by serial bleeding at 0.16 h, 0.5 h, 1 h, 2 h, 4 h, 6 h, 8 h and 24 h in heparinized tubes. Blood samples were centrifuged at 10,000 rpm for 10 min. at 4° C. to obtain the plasma, which were aspirated into separate labeled tubes and stored at −80° C. 400 ng/ml of Verapmil in acetonitrile was used as the drug extraction solvent for extracting drug from plasma. Extraction solvent was added to plasma was vortexed and shaken on shaker for 10 minutes, centrifuged at 10000 rpm for 10 minutes at 4° C. Supernatant was kept for analysis.\nAcetonitrile and plasma calibration curves were generated and percentage of drug recovery from plasma determined. Quantitative analysis was done by liquid chromatography tandem mass spectrometry using multiple reaction monitoring (API3000 LC-MS/MS). Cmax, Tmax, AUC and t1/2 were calculated using Graph Pad PRISM version 5.04.",
  "data": [
    {"compound": "CC(=O)O[C@H]1C(=O)[C@@]2(C)[C@H]([C@H](OC(=O)c3ccccc3)[C@@]3(O)CC1=C(C)[C@@H](OC(=O)[C@H](O)[C@@H](NC(=O)c1ccccc1)c1ccccc1)C3)[C@]1(OC(C)=O)CO[C@@H]1C[C@@H]2O", "note": "[Compound 4114, (2α,4α,5β,7β,10β,13α)-4,10-bis(acetyloxy)-13-{[(2R,3S)-3-(benzoylamino)-2-hydroxy-3-phenylpropanoyl]oxy}-1,7-dihydroxy-9-oxo-5,20-epoxytax-11-en-2-yl benzoate]", "values": [
      {"measurement": "AUC", "setting": "female, Sprague Dawley, rat, plasma, po, 10 mg/kg", "value": 186, "unit": "nM·h"}
    ]},
    {"compound": "CCc1c2c(nc3ccc(OCOC(=O)c4cccnc4)cc13)-c1cc3c(c(=O)n1C2)COC(=O)[C@]3(O)CC", "note": "[Compound 305, (S)-((4,11-diethyl-4-hydroxy-3,14-dioxo-3,4,12,14-tetrahydro-1H-pyrano[3′,4′:6,7]indolizino[1,2-b]quinolin-9-yl)oxy)methyl nicotinate]", "values": [
      {"measurement": "PK Value (AUC)", "setting": "dosage 10.00 mpk, vehicle PEG400", "value": "BDL"}
    ]},
    {"compound": "CCc1c2c(nc3ccc(O)cc13)-c1cc3c(c(=O)n1C2)COC(=O)[C@]3(O)CC", "note": "[Compound 4150, (S)-4,11-diethyl-4,9-dihydroxy-1H-pyrano[3′,4′:6,7]indolizino[1,2-b]quinoline-3,14(4H,12H)-dione]", "values": [
      {"measurement": "PK Value (AUC)", "setting": "rat, in vivo", "value": "BDL"}
    ]},
    {"compound": "CCc1c2c(nc3ccc(OCOC(=O)c4ccc[n+](COC(=O)NC(C)C)c4)cc13)-c1cc3c(c(=O)n1C2)COC(=O)[C@]3(O)CC.[I-]", "note": "[Compound 306, (S)-3-((((4,11-diethyl-4-hydroxy-3,14-dioxo-3,4,12,14-tetrahydro-1H-pyrano[3′,4′:6,7]indolizino[1,2-b]quinolin-9-yl)oxy)methoxy)carbonyl)-1-(((isopropylcarbamoyl)oxy)methyl)pyridin-1-ium iodide]", "values": [
      {"measurement": "PK Value (AUC)", "setting": "dosage 3.00 mpk, vehicle PEG400", "value": "BDL"}
    ]}
  ]
}
